Laboratory results: article PMC11247486, “Improving the In Vivo Stability of [^52Mn]Mn(II) Complexes with 18-Membered Macrocyclic Chelators for PET Imaging” (Journal of Medicinal Chemistry, 2024)

What was measured:
[1] = 1H NMR relaxometry (relaxivity as a function of pH); type: physicochemical; conditions: around neutral pH, 61 MHz and 25 °C
Description: The studies reported by Branco assumed the formation of a protonated [Mn(HL)]^3+ species for the Mn-PYAN complex characterized by protonation constant log KMnLH = 5.19 (KMnLH = [MnHL]/[MnL] × [H^+]).[42] However, our pH-potentiometric data could be fitted very well without considering the formation of protonated species or hydroxo-complexes. In order to confirm that the equilibrium model used to fit the pH-potentiometric data was correct, we measured the relaxivity (r1p) of aqueous solutions of the complexes as a function of pH (Figure 4). Relaxivity measures the ability of a paramagnetic solute to enhance the longitudinal relaxation rate of solvent water molecules, normalized for a 1 mM concentration of the paramagnetic ion.[45] The r1p values measured around neutral pH values (0.83 and 1.40 mM^–1 s^–1 at 61 MHz and 25 °C for Mn-PYAN and Mn-CHXPYAN, respectively) are typical of complexes that lack one or more water molecules in the inner coordination sphere, the observed relaxivity being the result of the outer-sphere contribution.[46] Relaxivity is fairly constant in the pH range of 6–9 but increases below pH ∼ 6 due to complex dissociation, reaching a relaxivity of 6.00 mM^–1 s^–1 at pH 3, 61 MHz, and 25 °C that is characteristic of the [Mn(H2O)6]^2+ complex.[47] The relaxivity profile matches the speciation diagrams calculated using the equilibrium constants obtained by pH potentiometry very well, which provides support for the equilibrium model used to fit the potentiometric data. It is worth noting that complex dissociation takes place at a lower pH for Mn-CHXPYAN than for Mn-PYAN, as expected, considering their pMn values.
The relaxivity values were calculated from the longitudinal relaxation time of H2O protons (T1) measured at 61 MHz on a Stelar relaxometer connected to a Bruker WP80 NMR electromagnet adapted to variable-field measurements (15–80 MHz proton Larmor frequency). […] The longitudinal relaxation time was measured with the “inversion recovery” method (180°–τ–90°) by using 12 different τ values with a typical 90° pulse width of 10.7 μs, 4 scans. […]

[2] = Cyclic voltammetry of the Mn(II) complexes; type: physicochemical; conditions: for peak-to-peak separation (ΔEp): 2 mM complex, pH ∼ 6.5
Method: Cyclic voltammetry experiments were performed with Mn-PYAN and Mn-CHXPYAN, using aqueous solutions with a complex concentration of 2 mM, containing 0.15 M NaCl as the supporting electrolyte (pH ∼ 6.5). The cyclic voltammograms obtained (Figure 3) show well-defined anodic and cathodic waves due to the Mn(II)/Mn(III) pair, which are characteristic of reversible or quasi-reversible processes. At the lowest scan rate (20 mV/s), the peak-to-peak separation (ΔEp) is slightly smaller for Mn-CHXPYAN than for Mn-PYAN, with values of 73 and 80 mV, respectively. When increasing the scan rate, ΔEp increases slightly, with values of 85 and 102 mV, respectively, at the highest scan rate (500 mV/s). This situation is characteristic of electrochemically quasi-reversible processes, although for Mn-CHXPYAN, the values of ΔEp are lower and present less variation with the scan rate.
This is likely related to ligand field effects due to the more symmetrical octahedral coordination around the metal ion in Mn-CHXPYAN than in Mn-PYAN, as evidenced by the shape measures mentioned above (Table S1, Supporting Information).[37] Indeed, high-spin Mn(III) complexes often display Jahn–Teller distorted octahedral coordination, while high-spin Mn(II) complexes lack any LFSE.[38],[39] The E1/2 values of 652 and 567 mV vs Ag/AgCl (3 M KCl) correspond to 862 and 777 mV vs NHE for Mn-PYAN and Mn-CHXPYAN, respectively.[40]
Cyclic voltammetry measurements were performed with a three-electrode configuration on an Autolab PGSTAT302 M potentiostat-galvanostat. A glassy-carbon disk (Metrohm 61204600) was used as the working electrode. The surface of this electrode was polished with α-Al2O3 (0.3 μm) and washed with distilled water before every measurement. The reference electrode used was a Ag/AgCl reference electrode filled with 3 M KCl (Metrohm 6.0726.100). A Pt wire was used as the counter electrode. The complex solutions (2 mM) containing […] were deoxygenated by bubbling nitrogen before each measurement.

[3] = scan rate 500 mV/s, 0.15 M NaCl
[4] = vs Ag/AgCl (3 M KCl), 0.15 M NaCl

SMILES | relaxivity r1p [1] | peak-to-peak separation (ΔEp) ([2]; scan rate 20 mV/s, 0.15 M NaCl) | peak-to-peak separation (ΔEp) [2, 3] | half wave potential (E1/2) [2, 4] | half wave potential (E1/2) ([2]; vs NHE)
[Mn+2].c1cc2nc(c1)CN[C@@H]1CCCC[C@H]1NCc1cccc(n1)CN[C@@H]1CCCC[C@H]1NC2 [Mn-CHXPYAN] | 1.40 mM^–1 s^–1 | 73 mV | 85 mV | 567 mV | 777 mV
[Mn+2].c1cc2nc(c1)CNCCNCc1cccc(n1)CNCCNC2 [Mn-PYAN] | 0.83 mM^–1 s^–1 | 80 mV | 102 mV | 652 mV | 862 mV
